Laboratory results published in patent publication US8987235B2, “N-cyclopropyl-(20R)-2-methylene-19,26,27-trinor-25-aza-vitamin D analogs and their uses” (Wisconsin Alumni Research Foundation, priority 2011, dated 2015).
“Also recorded” adds a separate entry of the source.

Key:
[1] = system: 24-hydroxylase (24 Ohase) gene promoter in ROS 17/2.8 (bone) cells; test: In vitro transcription assay (24-hydroxylase promoter luciferase reporter); assay type: cell-based; settings: for EC50: ROS 17/2.8 cells, 24-hydroxylase promoter luciferase, 16 h, FIG. 3, read-out: EC50, transcriptional activity in bone cells
Description: In Vitro Transcription Assay Transcription activity was measured in ROS 17/2.8 (bone) cells that were stably transfected with a 24-hydroxylase (24 Ohase) gene promoter upstream of a luciferase reporter gene (Arbour et al., 1998). Cells were given a range of doses. Sixteen hours after dosing the cells were harvested and luciferase activities were measured using a luminometer. RLU=relative luciferase units.

[2] = system: Human promyelocytic leukemia (HL60) cells; test: HL-60 differentiation (nitro blue tetrazolium reduction); assay type: cell-based; settings: four days, FIG. 2
Description: The study drugs were dissolved in ethanol and the concentrations determined using UV spectrophotometry. Serial dilutions were prepared so that a range of drug concentrations could be tested without changing the final concentration of ethanol (≦0.2%) present in the cell cultures.
Human promyelocytic leukemia (HL60) cells were grown in RPMI-1640 medium containing 10% fetal bovine serum. The cells were incubated at 37° C. in the presence of 5% CO2.
HL60 cells were plated at 1.2×10^5 cells/ml. Eighteen hours after plating, cells in duplicate were treated with drug. Four days later, the cells were harvested and a nitro blue tetrazolium reduction assay was performed (Collins et al., 1979; J. Exp. Med. 149:969-974). The percentage of differentiated cells was determined by counting a total of 200 cells and recording the number that contained intracellular black-blue formazan deposits. Verification of differentiation to monocytic cells was determined by measuring phagocytic activity (data not shown).

vitamin D-deficient rats [3] = test: Bone calcium mobilization (serum calcium); assay type: in vivo, Sprague-Dawley rats
Text: Intestinal Calcium Transport and Bone Calcium Mobilization
Male, weanling Sprague-Dawley rats were placed on Diet 11 (Suda et al, J. Nutr. 100:1049, 1970) (0.47% Ca)+vitamins AEK for one week followed by Diet 11 (0.02% Ca)+vitamins AEK for 3 weeks. The rats were then switched to the same diet containing 0.47% Ca for one week followed by two weeks on the same diet containing 0.02% Ca. Dose administration began during the last week on 0.02% calcium diet. Four consecutive ip doses were given approximately 24 hours apart. Twenty-four hours after the last dose, blood was collected from the severed neck and the concentration of serum calcium determined by atomic absorption spectrometry as a measure of bone calcium mobilization. The first 10 cm of the intestine was also collected for intestinal calcium transport analysis using the everted gut sac method.

vitamin D-deficient rats [4] = test: Intestinal calcium transport (everted gut sac method); assay type: in vivo, Sprague-Dawley rats; settings: low calcium diet, 4 ip doses, relative to 1,25(OH)2D3, FIG. 5
Text: Dose administration began during the last week on 0.02% calcium diet. […] The first 10 cm of the intestine was also collected for intestinal calcium transport analysis using the everted gut sac method.

[5] = molecular target: T1, full-length recombinant rat vitamin D receptor (Rattus norvegicus, UniProt P13053); test: biochemical
T1 sequence (P13053 1-423): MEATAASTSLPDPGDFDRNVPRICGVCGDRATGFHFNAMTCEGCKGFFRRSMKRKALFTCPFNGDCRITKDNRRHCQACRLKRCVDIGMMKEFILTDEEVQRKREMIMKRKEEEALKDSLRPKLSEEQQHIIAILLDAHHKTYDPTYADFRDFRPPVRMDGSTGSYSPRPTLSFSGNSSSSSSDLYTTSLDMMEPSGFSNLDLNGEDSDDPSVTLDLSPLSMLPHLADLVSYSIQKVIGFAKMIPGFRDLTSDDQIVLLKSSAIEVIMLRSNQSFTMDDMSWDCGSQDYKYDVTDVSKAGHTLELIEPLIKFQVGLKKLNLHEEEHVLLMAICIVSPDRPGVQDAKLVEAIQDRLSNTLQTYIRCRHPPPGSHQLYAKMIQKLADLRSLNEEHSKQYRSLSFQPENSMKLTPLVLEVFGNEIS

| Compound | EC50 [1] [nM] | EC50 [2] [nM] | serum calcium levels (in words) (vitamin D-deficient rats [3]; 87 pmol and 780 pmol dosages, rats on 0.02% Ca diet, listed as 1,25(OH)2D3) | times less potent than 1,25(OH)2D3 in promoting intestinal calcium transport (vitamin D-deficient rats [4]) | times less potent than 1,25(OH)2D3 in increasing transcription of the 24-hydroxylase gene ([1]; bone cells, relative to 1,25(OH)2D3) | Ki [5] [nM] | EC50 ([2]; Homo sapiens, HL-60, 96 h) [nM] | times less potent than 1,25(OH)2D3 in releasing bone calcium stores (vitamin D-deficient rats [3]; rats, low calcium diet, 4 ip doses, relative to 1,25(OH)2D3, FIG. 4) |
| --- | --- | --- | --- | --- | --- | --- | --- | --- |
| C=C1/C(=C\C=C2/CCC[C@]3(C)[C@@H]([C@H](C)CCCC(C)(C)O)CC[C@@H]23)C[C@@H](O)C[C@@H]1O [1α,25-dihydroxyvitamin D3, reference compound] | 0.2 | 2 | increased serum calcium levels; also recorded: significant increases in serum calcium |  |  |  |  |  |
| C=C1[C@H](O)CC(=C/C=C2\CCC[C@]3(C)[C@@H]([C@H](C)CCCNC4CC4)CC[C@@H]23)C[C@H]1O [CPA-1, N-cyclopropyl-(20R)-2-methylene-19,26,27-trinor-25-aza-1α-hydroxyvitamin D3] | 3 |  |  | about 20 times | about 10 times | 3 | 3 | about 400 times |
